Experimental findings from patent US20250034135A1, “ANTI-APOPTOTIC PROTEIN BCL-2 INHIBITOR, PHARMACEUTICAL COMPOSITION AND USES THEREOF” (HANGZHOU HEALZEN THERAPEUTICS CO., LTD., priority 2021, published 2025) are described below.

The target in one assay is BCL2 (Homo sapiens (Human), UniProt P10415). The assay can be described thus: Molecular level activity test of anti-apoptotic protein BCL2 (HTRF, binding to Bim peptide). The conditions noted are these: HTRF, binding of BCL2 to Bim peptide; read-out: BCL2 nM (inhibitory activity, IC50). Summed up:
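Step one: compound, supplied in 2% DMSO, is mixed with His-tagged BCL2 and biotinylated Bim peptide and reacted for 1 h. Step two: anti-His and streptavidin-XL665 reagents in detection buffer are added. Step three: after a 4 h room-temperature incubation, time-resolved fluorescence is measured.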

The target in a further assay is BCL-XL (Homo sapiens (Human), UniProt Q07817). The assay can be described thus: BCL-XL enzyme molecular level activity test (HTRF, binding to BIM peptide). Conditions: binding of BCL-XL to BIM peptide, read-out: BCL-XL inhibitory activity (IC50). As for the experimental part:
In a white shallow 384-well plate, a total reaction volume was 10 μL. Specifically, it included 2 μL of the compound to be tested (2% DMSO), […] His-tagged recombinant protein, and 4 μL Biotin-tagged BIM protein peptide. After 1 hour of reaction, 5 μL of each Anti-His and streptavidin-tagged XL665 antibody diluents diluted with a detection buffer were added. After incubating at room temperature for 4 hours, the values were read using the Envision multifunctional microplate reader to detect the effect of the compound to be tested on the binding ability of BCL-XL to BIM protein peptides. The Envision parameter settings were exciting light at 320 nm, and emitting light at 615 nm and 665 nm. The binding ability of anti-apoptotic proteins to Bim protein peptides was indirectly reflected by the signal ratio of 665 nm and 615 nm. In the reaction, background wells without BCL2 and active wells for full binding of recombinant proteins without compounds and Bim protein peptides were set up.

The target of another assay is BCL2 (G101V) (Homo sapiens (Human), UniProt P10415, G101V). The assay can be described thus: Molecular level activity test of anti-apoptotic protein BCL2 (G101V) (HTRF, binding to Bim peptide). Conditions: inhibition of BCL2 (G101V) binding to Bim peptide, read-out: BCL-2 (G101V). The method, then: The detection of the binding ability between anti-apoptotic protein BCL2 (G101V) and pro-apoptotic protein Bim was performed using Homogeneous Time-Resolved Fluorescence technology. The reaction of this method occurred in a white shallow 384-well plate, with a total reaction volume of 10 μL. Specifically, it included 2 μL of the compound to be tested (2% DMSO), 4 μL His-tagged recombinant protein, and 4 μL Biotin-tagged BIM protein peptide. After 1 hour of reaction, […] of each Anti-His and streptavidin-tagged XL665 antibody diluents diluted with a detection buffer were added. After incubating at room temperature for 4 hours, the values were read using the Envision multifunctional microplate reader to detect the effect of the compound to be tested on the binding ability of BCL2 (G101V) to BIM protein peptides.

Molecules are shown by their SMILES. pIC50: −log10 of the molar value. Like-named read-outs stand apart in the source and are kept apart here.

Sequence of BCL-XL (Q07817 whole entry): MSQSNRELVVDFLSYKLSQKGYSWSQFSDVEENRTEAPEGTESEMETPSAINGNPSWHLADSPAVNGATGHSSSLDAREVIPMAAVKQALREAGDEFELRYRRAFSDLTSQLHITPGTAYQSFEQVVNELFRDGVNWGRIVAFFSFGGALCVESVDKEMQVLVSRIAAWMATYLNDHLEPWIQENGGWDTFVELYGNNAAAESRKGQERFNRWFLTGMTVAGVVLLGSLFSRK

For `CC(C)c1ccccc1[C@@H]1CN(Cc2cccc3c2OCO3)CCN1C1CC2(CCN(c3cc(Oc4cnc5[nH]ccc5c4)c(C(=O)NS(=O)(=O)c4ccc(NCC5(F)CCOCC5)c([N+](=O)[O-])c4)cc3F)CC2)C1` [compound 204, (R)-2-((1H-pyrrolo[2,3-b]pyrid-5-yl)oxy)-4-(2-(4-(benzo[d][1,3]dioxocyclopent-4-ylmethyl)-2-(2-isopropylphenyl)piperazin-1-yl)-7-azaspiro[3.5]non-7-yl)-5-fluoro-N-((4-(((4-fluorotetrahydro-2H-pyran-4-yl)methyl)amino)-3-nitrophenyl)sulfonyl)benzamide], the pIC50 on BCL2 was more than 8.00. For the same compound, the IC50 on BCL-XL (values in nM) was more than 500 nM.

For `CC(C)c1ccccc1[C@@H]1CN(Cc2c(F)cccc2F)CCN1C1CC2(CCN(c3cc(Oc4cnc5[nH]ccc5c4)c(C(=O)NS(=O)(=O)c4ccc(NC[C@H]5CC[C@](C)(O)CC5)c([N+](=O)[O-])c4)cc3F)CC2)C1` [compound 217, 2-((1H-pyrrolo[2,3-b]pyrid-5-yl)oxy)-4-(2-((R)-4-(2,6-difluorobenzyl)-2-(2-isopropylphenyl)piperazin-1-yl)-7-azaspiro[3.5]non-7-yl)-5-fluoro-N-((4-((((1r, 4r)-4-hydroxy-4-methylcyclohexyl)methyl)amino)-3-nitrophenyl)sulfonyl)benzamide], the pIC50 at BCL2 is more than 8.00. The IC50 at BCL-XL (values in nM) is more than 500 nM.

As to `COc1cccc(CN2CCN(C3CC4(CCN(c5cc(Oc6cnc7[nH]ccc7c6)c(C(=O)NS(=O)(=O)c6ccc(NCC7(F)CCOCC7)c([N+](=O)[O-])c6)cc5F)CC4)C3)[C@H](c3ccccc3C(C)C)C2)c1` [compound 184, (R)-2-((1H-pyrrolo[2,3-b]pyrid-5-yl)oxy)-5-fluoro-N-((4-(((4-fluorotetrahydro-2H-pyran-4-yl)methyl)amino)-3-nitrophenyl)sulfonyl)-4-(2-(2-(2-isopropylphenyl)-4-(3-methoxybenzyl)piperazin-1-yl)-7-azaspiro[3.5]non-7-yl)benzamide], the pIC50 on BCL2 and at BCL2 (G101V) was more than 8.00 throughout. In addition, at BCL-XL (values in nM), the IC50 was more than 500 nM.

Turning to `CC(C)c1ccccc1[C@@H]1CN(Cc2ccc(C(F)(F)F)cc2)CCN1C1CC2(CCN(c3cc(Oc4cnc5[nH]ccc5c4)c(C(=O)NS(=O)(=O)c4ccc(NCC5(F)CCOCC5)c([N+](=O)[O-])c4)cc3F)CC2)C1` [compound 188, (R)-2-((1H-pyrrolo[2,3-b]pyrid-5-yl)oxy)-5-fluoro-N-((4-(((4-fluorotetrahydro-2H-pyran-4-yl)methyl)amino)-3-nitrophenyl)sulfonyl)-4-(2-(2-(2-isopropylphenyl)-4-(4-(trifluoromethyl)benzyl)piperazin-1-yl)-7-azaspiro[3.5]non-7-yl)benzamide], at BCL2, the pIC50 was more than 8.00. Further, the IC50 on BCL-XL (values in nM) is more than 500 nM.

In the case of `COc1ccc(CN2CCN(C3CC4(CCN(c5cc(Oc6cnc7[nH]ccc7c6)c(C(=O)NS(=O)(=O)c6ccc(NCC7(F)CCOCC7)c([N+](=O)[O-])c6)cc5F)CC4)C3)C(c3ccccc3C(C)C)C2)cc1` (stereo not shown) [compound 066, 2-((1H-pyrrolo[2,3-b]pyrid-5-yl)oxy)-5-fluoro-N-((4-(((4-fluorotetrahydro-2H-pyran-4-yl)methyl)amino)-3-nitrophenyl)sulfonyl)-4-(2-(2-(2-isopropylphenyl)-4-(4-methoxybenzyl)piperazin-1-yl)-7-azaspiro[3.5]non-7-yl)benzamide], on BCL2, the pIC50 was more than 8.00. The IC50 on BCL-XL (values in nM) is more than 500 nM.

Take `COc1ccc(CN2CCN(C3CC4(CCN(c5cc(Oc6cnc7[nH]cc(F)c7c6)c(C(=O)NS(=O)(=O)c6ccc(NCC7(F)CCN(C(C)C)CC7)c([N+](=O)[O-])c6)cc5F)CC4)C3)C(c3ccccc3C(C)C)C2)cc1` (stereo not shown) [compound 062]: the pIC50 at BCL2 and on BCL2 (G101V) was more than 8.00 throughout. For the same compound, on BCL-XL (values given in μM), the IC50 was more than 1000 nM.

For `CC(C)c1ccccc1[C@@H]1CN(Cc2ccc3c(c2)OCCO3)CCN1C1CC2(CCN(c3cc(Oc4cnc5[nH]ccc5c4)c(C(=O)NS(=O)(=O)c4ccc(NCC5(F)CCOCC5)c([N+](=O)[O-])c4)cc3F)CC2)C1` [compound 207, (R)-2-((1H-pyrrolo[2,3-b]pyrid-5-yl)oxy)-4-(2-(4-((2,3-dihydrobenzo[b][1,4]dioxane-6-yl)methyl)-2-(2-isopropylphenyl)piperazin-1-yl)-7-azaspiro[3.5]non-7-yl)-5-fluoro-N-((4-(((4-fluorotetrahydro-2H-pyran-4-yl)methyl)amino)-3-nitrophenyl)sulfonyl)benzamide], the pIC50 at BCL2 is more than 8.00. The IC50 at BCL-XL (values in nM) is more than 500 nM.

`CC(C)c1ccccc1[C@@H]1CN(Cc2cccc3c2OCCO3)CCN1C1CC2(CCN(c3cc(Oc4cnc5[nH]ccc5c4)c(C(=O)NS(=O)(=O)c4ccc(NC[C@H]5CC[C@](C)(O)CC5)c([N+](=O)[O-])c4)cc3F)CC2)C1` [compound 227, 2-((1H-pyrrolo[2,3-b]pyrid-5-yl)oxy)-4-(2-((R)-4-((2,3-dihydrobenzo[b][1,4]dioxane-5-yl)methyl)-2-(2-isopropylphenyl)piperazin-1-yl)-7-azaspiro[3.5]non-7-yl)-5-fluoro-N-((4-((((1r, 4r)-4-hydroxy-4-methylcyclohexyl)methyl)amino)-3-nitrophenyl)sulfonyl)benzamide]: on BCL2, the pIC50 is more than 8.00. At BCL-XL (values in nM), the IC50 is more than 500 nM.

As for `CC(C)c1ccccc1[C@@H]1CN(Cc2ccc3c(c2)OCCO3)CCN1C1CC2(CCN(c3cc(Oc4cnc5[nH]ccc5c4)c(C(=O)NS(=O)(=O)c4ccc(NC[C@H]5CC[C@](C)(O)CC5)c([N+](=O)[O-])c4)cc3F)CC2)C1` [compound 226, 2-((1H-pyrrolo[2,3-b]pyrid-5-yl)oxy)-4-(2-((R)-4-((2,3-dihydrobenzo[b][1,4]dioxane-6-yl)methyl)-2-(2-isopropylphenyl)piperazin-1-yl)-7-azaspiro[3.5]non-7-yl)-5-fluoro-N-((4-((((1r, 4r)-4-hydroxy-4-methylcyclohexyl)methyl)amino)-3-nitrophenyl)sulfonyl)benzamide], the pIC50 at BCL2 was more than 8.00. The IC50 at BCL-XL (values in nM) is more than 500 nM.

`COc1ccc(CN2CCN(C3CC4(CCN(c5cc(Oc6cnc7[nH]ccc7c6)c(C(=O)NS(=O)(=O)c6ccc(NCC7(F)CCOCC7)c([N+](=O)[O-])c6)cc5F)CC4)C3)[C@H](c3ccccc3C(C)C)C2)c2c1OCO2` [compound 205]: on BCL2, the pIC50 was more than 8.00. Also, the IC50 at BCL-XL (values in nM) was more than 500 nM.

Turning to `CC(C)c1ccccc1[C@@H]1CN(Cc2ccc(C(F)(F)F)cc2)CCN1C1CC2(CCN(c3cc(Oc4cnc5[nH]ccc5c4)c(C(=O)NS(=O)(=O)c4ccc(NC[C@H]5CC[C@](C)(O)CC5)c([N+](=O)[O-])c4)cc3F)CC2)C1` [compound 216, 2-((1H-pyrrolo[2,3-b]pyrid-5-yl)oxy)-5-fluoro-N-((4-((((1r, 4r)-4-hydroxy-4-methylcyclohexyl)methyl)amino)-3-nitrophenyl)sulfonyl)-4-(2-((R)-2-(2-isopropylphenyl)-4-(4-(trifluoromethyl)benzyl)piperazin-1-yl)-7-azaspiro[3.5]non-7-yl)benzamide], the pIC50 at BCL2 is more than 8.00. Also, the IC50 at BCL-XL (values in nM) was more than 500 nM.

Consider `CC(C)c1ccccc1[C@@H]1CN(Cc2ccc3c(c2)OCO3)CCN1C1CC2(CCN(c3cc(Oc4cnc5[nH]ccc5c4)c(C(=O)NS(=O)(=O)c4ccc(NC[C@H]5CC[C@](C)(O)CC5)c([N+](=O)[O-])c4)cc3F)CC2)C1` [compound 224, 2-((1H-pyrrolo[2,3-b]pyrid-5-yl)oxy)-4-(2-((R)-4-(benzo[d][1,3]dioxocyclopent-5-ylmethyl)-2-(2-isopropylphenyl)piperazin-1-yl)-7-azaspiro[3.5]non-7-yl)-5-fluoro-N-((4-((((1r, 4r)-4-hydroxy-4-methylcyclohexyl)methyl)amino)-3-nitrophenyl)sulfonyl)benzamide], for which the pIC50 on BCL2 was more than 8.00. Further, the IC50 at BCL-XL (values in nM) was more than 500 nM.

With `CC(C)c1ccccc1[C@@H]1CN(Cc2ccc(C3CC3)cc2)CCN1C1CC2(CCN(c3cc(Oc4cnc5[nH]ccc5c4)c(C(=O)NS(=O)(=O)c4ccc(NCC5(F)CCOCC5)c([N+](=O)[O-])c4)cc3F)CC2)C1` [compound 195, (R)-2-((1H-pyrrolo[2,3-b]pyrid-5-yl)oxy)-4-(2-(4-(4-cyclopropylbenzyl)-2-(2-isopropylphenyl)piperazin-1-yl)-7-azaspiro[3.5]non-7-yl)-5-fluoro-N-((4-(((4-fluorotetrahydro-2H-pyran-4-yl)methyl)amino)-3-nitrophenyl)sulfonyl)benzamide], the pIC50 on BCL2 is more than 8.00. Moreover, the IC50 on BCL-XL (values in nM) is more than 500 nM.
